# Reference: patent publication US5565437A, “2',3'-dideoxy-2'-fluoro-purine nucleosides and methods for using same” (priority 1992, dated 1996)
# Assays:
# [1] = system: HIV; conditions: background statement; cited from earlier work
# [2] = system: human immunodeficiency virus (HIV); conditions: background statement; cited from earlier work
# [3] = Acid-catalyzed decomposition / stability in acid, 37° C., HPLC; format: physicochemical
# Description: In order to study acid-catalyzed decomposition of the subject compounds, a pH 1 buffer was prepared by dissolving 0.746 g KCl and 26.8 g 1.0N HCl in sufficient distilled water to give 200 ml total volume. Ten ml of buffer, prewarmed to 37° C., was added to 102 micrograms of ddA (Compound I), and 93 micrograms of each compounds II or III, 2',3'-dideoxy-2'-alpha-flourodeminine or 2'-beta-flouro-2',3'-dideoxyadenosine. The samples were shaken and maintained at 37° C. Aliquots were taken at timed intervals and neutralized immediately with 0.1 NaOH and chilled on ice. The amounts of ddA and the fluorinated analogs were determined by HPLC analysis using a 4.6×250 mm […] Ultrasphere ODS column protected by a guard column packed with 37-50 micron Vydac 201SC. Elution was with 12% acetonitrile in 0.01 M pH 6.8 phosphate buffer at 1.0 ml/minute. The integrator peak areas were plotted as a function of time, and the data was fitted to a first order decomposition curve by a computer program (MLAB).
# [4] = relative to adenosine; cited from earlier work
# [5] = system: human immunodeficiency virus (HIV; HTLV-IIIB virus) in ATH8 cells; test: HIV cytopathic assay using ATH8 cells (protection against the cytopathic effect of HIV); format: cell-based
# Description: To test the cytopathic effect of the compounds of the present invention, HIV cytopathic assay was performed using ATH8 cells as described by Mitsuya et al., Proc. Nat. Acad. Sci. USA, 83, 1911 (1986). In brief, 2×10^5 ATH8 cells were preexposed to polybrene, exposed to HTLV-IIIB virus (2000 virus particles/cell) for 45 minutes after treatment with polybrene, resuspended in 1 ml of culture medium containing Interleukin 2 in the presence or absence of various concentrations of compounds, and incubated in culture tubes at 37° C. in 5% CO2 /95% air humidified atmosphere. Control cells were treated similarly but were not exposed to the virus. At various times on days 5 to 7 of culture, the total viable cells were counted in a hemocytometer by the trypan blue dye exclusion method. In the HIV cytopathic effect assay using ATH8 cells, 0.5 to 5 virus particles per cell represent the minimum cytopathic dose of the virus.
# [6] = system: adenosine deaminase; test: Metabolism by adenosine deaminase in the body; format: in vitro ADME
compound,measurement,setting,value
antimoniotungstate,HIV replication in the presence of compound,[1],considerably slower
"Nc1ncnc2c1ncn2[C@H]1CC[C@@H](CO)O1 [Compound I, 2',3'dideoxyadenosine]",in vitro activity against HIV,[2],potent in vitro activity
same,half-life,"[3]; ph 1 kcl/hcl buffer, pH 1.0, 37° C. (FIG. 3)",35 s
same,"rate of acid-catalyzed hydrolysis of the glycosidic bond, times faster than adenosine",[4],"40,000 times"
"Nc1ncnc2c1ncn2[C@@H]1O[C@H](CO)C[C@@H]1F [Compound III, 2',3'-dideoxy-2'-beta-fluoroadenosine]","durability of the antiviral effect, compared with the parent compound I",[5]; compared with compound I (ddA),as durable as that of the parent compound
same,"activity and potency in protecting ATH8 cells against the cytopathic effect of HIV, compared with ddA","[5]; substantial viral excess, FIG. 1",approximately as active and potent as ddA
same,metabolism by adenosine deaminase,[6],"metabolism of 2',3'-dideoxy-2'-beta-fluoroadenosine to compound IV"
same,change after exposure to acidic conditions,"[3]; 24 hour exposure, pH 1 (FIG. 3)",completely unchanged
Cc1ccc(C(=O)Nc2ccc(S(=O)(=O)O)c3cc(S(=O)(=O)O)cc(S(=O)(=O)O)c23)cc1NC(=O)c1cccc(NC(=O)Nc2cccc(C(=O)Nc3cc(C(=O)Nc4ccc(S(=O)(=O)O)c5cc(S(=O)(=O)O)cc(S(=O)(=O)O)c45)ccc3C)c2)c1 [suramin],HIV replication in the presence of compound,[1],considerably slower
"Nc1ncnc2c1ncn2[C@@H]1O[C@H](CO)C[C@H]1F [Compound II, 2',3'-dideoxy-2'-alpha-flouroadenosine]",stability to acid-catalyzed decomposition,"[3]; pH 2, 37° C. (FIG. 2)",stable to acid-catalyzed decomposition
